Data on four molecules can be found in patent publication US20130330756A1, “DETECTION OF BACTERIA EXHIBITING ENZYMATIC RESISTANCE TO CARBAPENEMS” (BIOMERIEUX, priority 2011, published 2013).

Each structure is given as a SMILES string. Read-outs that look alike come from different tables or passages of the source. Peptide text beside a SMILES is read from it. * marks the point of attachment. βNA = c1ccc2cc(N*)ccc2c1

Assay [1] relates to class-B carbapenemase (NDM-1) producing strains. Put plainly: Ertapenem E-test MIC, NDM-1 strains. The format is cell-based, Klebsiella pneumoniae, Citrobacter freundii. Particulars: cloxacillin 200 mg/l and/or PAbetaN 25 mg/l, vs medium without either. On the procedure:
(§1) The effect of cloxacillin and PAbetaN on the MICs of the strains with ertapenem was evaluated firstly using E-test® strips in Mueller Hinton medium. […] The second test consisted in evaluating the impact of these 2 compounds on the MICs with ertapenem of 29 carbapenemases-producing strains (+1 ESBL).
(§2) Test B101001: twenty-nine carbapenemase-producing strains divided as follows: 27 Klebsiella pneumoniae strains producing class A KPC carbapenemase (KPC), and 2 strains respectively of Klebsiella pneumoniae and Citrobacter freundii which produce class-B carbapenemase (NDM-1). This test also comprised an ESBL Escherichia coli strain.
(§3) The E-tests were performed in Mueller-Hinton medium supplemented or not supplemented with cloxacillin and/or PAbetaN according to Table I:
(§4) 2. Test • Production for each strain of an approximately 0.5 McF suspension in a 0.85% NaCl ampule. • Seeding of the 4 media by semi-automatic swabbing. • Drying of the dishes at ambient temperature for 5 to 15 min. • Application of the ertapenem E-test® strip. • Incubation for 16 to 20 hours at 37° C.

The next assay relates to 19 IR strains. The experiment in a line: Agar dilution growth on chromogenic media with faropenem, IR strains. The format is cell-based. Conditions: for additional IR strains inhibited: faropenem 16 mg/L. The procedure: (§5) Seventy-seven strains of Gram-negative bacteria, of which 71 are enterobacteria and 6 non-enterobacteria (non-fermenting bacteria), whose resistance characteristics are set out in Table IV, were tested on media containing different concentrations of faropenem and cloxacillin, with or without PAbetaN, in order to establish the sensitivity and the specificity of each formulation. The tested media are described in Table V.
(§6) The chromogenic media are divided into 120×120 square dishes.
(§7) The seeding is performed from 24-h pre-cultures at 37° C. on trypcase soy agar. For each strain, a 0.5 McF suspension in physiological water is produced. Each suspension is spot-seeded (1 to 2 μL) on each medium with the aid of a multi-point inoculator according to the Agar Dilution (AD) method. Readings are performed after 24 hours of incubation at 37° C.
(§8) An absence of bacterial growth or a number of colonies which is less than or equal to 3 are considered as corresponding to a growth inhibition. The presence of 4 colonies or more is considered to be positive growth.
A general note: Agar dilution tests growth on a series of plates holding different concentrations.

Assay [2] concerns ESBL Escherichia coli strain. The experiment in a line: Ertapenem E-test MIC, ESBL strain. Particulars: cloxacillin 200 mg/l and/or PAbetaN 25 mg/l, vs medium without either. The format is cell-based. On the procedure:
as §1, §2, §3, §4

Assay [3] concerns 19 impermeability-resistant (IR) strains. The experiment in a line: Ertapenem E-test MIC, all 19 IR strains (TOTAL). The format is cell-based. Conditions: for number of strains: >2 MIC steps impact on ertapenem MIC / number of strains: No impact on ertapenem MIC / number of strains: ≦2 MIC steps impact on ertapenem MIC: TOTAL of 19 IR strains, cloxacillin 200 mg/l and/or PAbetaN 25 mg/l, vs medium without either. The procedure: as §1
(§9) Test B100904: the 19 impermeability-resistant (IR) strains belong to the following species: 10 Enterobacter aerogenes, 2 Enterobacter cloacae, 1 Citrobacter freundii, 1 Pseudomonas aeruginosa, 3 Proteus mirabilis and 2 Morganella morganii.
as §3, §4

Another assay relates to Proteus IR strains. Put plainly: Ertapenem E-test MIC, IR Proteus strains. The format is cell-based, Proteus mirabilis. Particulars: cloxacillin 200 mg/l and/or PAbetaN 25 mg/l, vs medium without either. On the procedure:
as §1, §9, §3, §4

Assay [4] concerns carbapenemase-producing strains. The format is cell-based. On the procedure: as §1, §2, §3, §4
Another assay has as its system Morganella IR strains. The experiment in a line: Ertapenem E-test MIC, IR Morganella strains. In kind it is cell-based, Morganella morganii. Conditions: cloxacillin 200 mg/l and/or PAbetaN 25 mg/l, vs medium without either. The procedure:
as §1, §9, §3, §4

Assay [5] has as its system carbapenemase-producing strains. The experiment in a line: Agar dilution growth on chromogenic media with faropenem, carbapenemase-producing strains. In kind it is cell-based. On the procedure:
as §5, §6, §7, §8

The next assay relates to Enterobacter IR strains. Put plainly: Ertapenem E-test MIC, impermeability-resistant (IR) Enterobacter strains. The format is cell-based, Enterobacter aerogenes, Enterobacter cloacae. Particulars: for number of strains: >2 MIC steps impact on ertapenem MIC / number of strains: No impact on ertapenem MIC: Enterobacter IR strains, Mueller Hinton, cloxacillin 200 mg/l and/or PAbetaN 25 mg/l, vs medium without either; for MIC with ertapenem: E. aerogenes strain 9306074. On the procedure: as §1, §9, §3, §4

In assay [6] the test system is class A KPC carbapenemase producing strains. The experiment in a line: Ertapenem E-test MIC, KPC strains. In kind it is cell-based, Klebsiella pneumoniae. On the procedure:
as §1, §2, §3, §4

The test system of another assay is Pseudomonas IR strain. Put plainly: Ertapenem E-test MIC, IR Pseudomonas strain. In kind it is cell-based, Pseudomonas aeruginosa. On the procedure: as §1, §9, §3, §4
The test system of another assay is Citrobacter IR strain. The experiment in a line: Ertapenem E-test MIC, IR Citrobacter strain. The format is cell-based, Citrobacter freundii. Conditions: cloxacillin 200 mg/l and/or PAbetaN 25 mg/l, vs medium without either. The procedure:
as §1, §9, §3, §4

Setting [7] is: TOTAL (ESBL+NDM+KPC), cloxacillin 200 mg/l and/or PAbetaN 25 mg/l, vs medium without either.
[8] abbreviates: Pseudomonas IR strain, cloxacillin 200 mg/l and/or PAbetaN 25 mg/l, vs medium without either.
Setting [9] is: PAbetaN added to cloxacillin, against MICs with cloxacillin, 17 strains already decreased >2 steps by cloxacillin.
[10] abbreviates: PAbetaN alone in Mueller Hinton.
Where [11] appears, read: KPC strains, cloxacillin 200 mg/l and/or PAbetaN 25 mg/l, vs medium without either.

Take `Cc1onc(-c2ccccc2Cl)c1C(=O)N[C@@H]1C(=O)N2[C@@H]1SC(C)(C)[C@@H]2C(=O)O` [CLX, cloxacillin]: the “number of strains: No impact on ertapenem MIC” value (“number of strains: No impact” for short) in [1] came to 2; in [2], 1; in assay [3] it was 1; in assay [4] (setting [7]), 10; with Enterobacter IR strains, 1; in [6], 7. Besides, the “additional IR strains inhibited” value with 19 IR strains (addition of 50 mg/L cloxacillin) stood at 6; in the assay on 19 IR strains (addition of 200 mg/L cloxacillin), 9. In addition, the “number of strains: >2 MIC steps impact on ertapenem MIC” value was found to be 17 in assay [3]; 3 in the assay on Proteus IR strains; 2 in the assay with Morganella IR strains; 11 with Enterobacter IR strains; 1 in the assay on Citrobacter IR strain. Further, the “number of strains: ≦2 MIC steps impact on ertapenem MIC” value (in assay [3]; in the assay with Pseudomonas IR strain (setting [8])) was 1 in each case. Further, the “IR strains whose MICs with ertapenem are reduced by more than 2 concentration steps” value in [3] (cloxacillin added to Mueller Hinton medium) was 16/19. Moreover, the “number of strains: >2 MIC steps, positive MIC effect” value in assay [4] (setting [7]) and in assay [6] was 2 in each case. Moreover, the “number of strains: ≦2 MIC steps, negative MIC effect” value in [4] (setting [7]) and in assay [6] was 16 each time. The “number of strains: >2 MIC steps, negative MIC effect” value in assay [4] (TOTAL (ESBL+NDM+KPC), cloxacillin 200 mg/l, vs medium without) is on record as 1; in assay [6] (200 ug/mL), 1. In [4] (cloxacillin), the “number of carbapenemase-producing strains (NDM or KPC) with no impact on MIC with ertapenem” value stood at 9. The “number of carbapenemase-producing strains with MIC slightly reduced” value in assay [4] (cloxacillin) was 16. Moreover, the “impact on growth of carbapenemase-producing strains” value in [5] (cloxacillin alone, at the 3 concentrations of faropenem tested) is on record as “little or no impact”. In the assay on Enterobacter IR strains (E. cloacae IR strain unimpacted by cloxacillin alone), this molecule displayed an MIC with ertapenem in medium with the named additive of over 32 µg/mL.

Turning to `C[C@@H](O)[C@H]1C(=O)N2C(C(=O)O)=C([C@H]3CCCO3)S[C@H]12` [Faropenem, faropenem], the “impact on growth of IR strains” value in the assay with 19 IR strains (faropenem alone, up to 16 mg/L) is recorded as “little impact”.

Regarding `NC(N)=NCCC[C@H](NC(=O)[C@@H](N)Cc1ccccc1)C(=O)Nc1ccc2ccccc2c1` [PAbetaN, phenylalanine-arginine-beta-naphthylamide] (H-Phe-Arg-βNA), the “number of strains: No impact” value in assay [1] was determined as 2; in assay [3] it was 17; in the assay on Proteus IR strains, 3; in assay [4] (setting [7]) it was 5; in the assay with Morganella IR strains it was 2; in the assay with Enterobacter IR strains, 10. The “number of strains: No impact” value stood at 3 in [6] (setting [11]), 1 in the assay on Pseudomonas IR strain (setting [8]) and 1 in the assay with Citrobacter IR strain. For the same molecule, the figures for the “number of strains: ≦2 MIC steps, positive MIC effect” value in [2], in [4] (setting [7]) and in assay [6] (setting [11]) were 1, 15 and 14, respectively. Also, the “number of IR strains unimpacted” value in assay [3] (setting [9]) is 1. In [3] (setting [9]), the “number of IR strains with MICs decreased by two additional MIC steps” value is 7. Moreover, in [3] (setting [9]), the “number of IR strains with less significantly decreased MICs (≦2 MIC steps)” value is recorded as 5. In addition, the “impact of PAbetaN alone on ertapenem MICs of the majority of the IR strains” value in assay [3] (PAbetaN alone) is “no impact”. Moreover, the “number of strains: >2 MIC steps impact on ertapenem MIC” value (in assay [3]; with Enterobacter IR strains) was 2 each time. The “number of strains: ≦2 MIC steps impact on ertapenem MIC” value in assay [3] was 0. Besides, the “number of strains with MIC with ertapenem slightly increased” value in assay [4] (setting [10]) came out at 15. In addition, the “number of strains with MIC with ertapenem very distinctly increased” value in assay [4] (setting [10]) worked out at 7. Also, the “number of strains: >2 MIC steps, positive MIC effect” value in assay [4] (setting [7]) and in [6] (setting [11]) was 7 each time. The “number of strains: ≦2 MIC steps, negative MIC effect” value in assay [4] (setting [7]) and in assay [6] (setting [11]) was 2 each time. In addition, the “detection sensitivity with vs without PAbetaN” value in assay [5] (200 mg/L cloxacillin and 8 or 16 mg/L faropenem) is recorded as “does not change”; in assay [5] (8 or 16 mg/L faropenem with 50 or 100 mg/L cloxacillin), “greater”. Moreover, the MIC with ertapenem in the assay with Enterobacter IR strains (in the presence of PAbetaN alone) is over 32 µg/mL. Besides, in the assay on Pseudomonas IR strain (P. aeruginosa IR strain), the “effect on ertapenem MIC of adding PAbetaN in addition to cloxacillin” value is recorded as “not affected”.

`C[C@@H](O)[C@H]1C(=O)N2C(C(=O)O)=C(S[C@@H]3CN[C@H](C(=O)Nc4cccc(C(=O)O)c4)C3)[C@H](C)[C@H]12` [ertapenem] came in with an MIC with ertapenem in the assay with Enterobacter IR strains (without PAbetaN) of 6 µg/mL.
